From ChEMBL document CHEMBL3822367, “Use of Photosensitizers in Semisolid Formulations for Microbial Photodynamic Inactivation” (2016)

System: Mycobacterium tuberculosis variant bovis BCG
Assay: Antimycobacterial activity against Mycobacterium bovis BCG Pasteur ATCC 35734 assessed as cell survival at 5 uM after 1 hr followed by irradiation with light at 60 to 100 J/cm'2
Type: functional, organism-based

## VERTEPORFIN
  Survival: 26%
